Measured values taken from ChEMBL document CHEMBL5579819, “Dual-target inhibitors of colchicine binding site for cancer treatment” (Eur J Med Chem, 2024).

What was measured:
[1] = system: MCF7; experiment: Cytotoxicity against human MCF7 cells assessed as reduction in cell growth incubated for 72 hrs by MTT assay; format: functional, cell-based; details: MCF7, 72 h
[2] = system: HCT-116; experiment: Cytotoxicity against human HCT-116 cells assessed as reduction in cell viability incubated fro 24 hrs by MTT assay; format: functional, cell-based; details: HCT-116, 24 h
[3] = system: MCF7; experiment: Cytotoxicity against human MCF7 cells assessed as reduction in cell viability incubated for 24 hrs by MTT assay; format: functional, cell-based; details: MCF7, 24 h
[4] = system: HepG2; experiment: Cytotoxicity against human HepG2 cells assessed as reduction in cell viability incubated for 24 hrs by MTT assay; format: functional, cell-based; details: HepG2, 24 h
[5] = Cmax in BALB/c mouse at 50 mg/kg, po measured for 24 hrs by LC-MS/MS analysis; format: ADME, organism-based; details: in vivo
[6] = molecular target: Triosephosphate isomerase (Homo sapiens, UniProt P60174); experiment: Inhibition of TPI (unknown origin)
[7] = AUC (0 to t) in BALB/c mouse at 50 mg/kg, po measured for 24 hrs by LC-MS/MS analysis; format: ADME, organism-based; details: in vivo
[8] = Metabolic stability in BALB/c mouse liver microsome assessed as half life incubated for 1 hrs by LC-MS/MS analysis; format: ADME; details: liver microsomes
[9] = molecular target: Tubulin; experiment: Inhibition of tubulin polymerization (unknown origin) by fluorescence based assay; format: protein-complex assay, Homo sapiens
[10] = system: COLO 205; experiment: Cytotoxicity against human COLO 205 cells assessed as reduction in cell growth incubated for 24 hrs by SRB assay; format: functional, cell-based; details: COLO 205, 24 h
[11] = system: HeLa; experiment: Cytotoxicity against human HeLa cells assessed as reduction in cell viability measured for 48 hrs by MTT assay; format: functional, cell-based
[12] = system: SiHa; experiment: Cytotoxicity against human SiHa cells assessed as reduction in cell viability measured for 48 hrs by MTT assay; format: functional, cell-based
[13] = system: A549; experiment: Cytotoxicity against human A549 cells assessed as reduction in cell growth incubated for 24 hrs by MTT assay; format: functional, cell-based; details: A549, 24 h
[14] = system: MCF7; experiment: Cytotoxicity against human MCF7 cells assessed as cell growth inhibition incubated for 24 hrs by MTT assay; format: functional, cell-based; details: MCF7, 24 h
[15] = Selectivity index, ratio of CC50 for cytotoxicity against African green monkey Vero cells to IC50 for cytotoxicity against human HepG2 cells; format: toxicity, cell-based; details: Vero cells (CC50) and HepG2 cells (IC50)
[16] = system: HepG2; experiment: Cytotoxicity against human HepG2 cells assessed as reduction in cell growth incubated for 24 hrs by MTT assay; format: functional, cell-based; details: HepG2, 24 h
[17] = molecular target: Platelet-derived growth factor receptor beta (Homo sapiens, UniProt P09619); experiment: Inhibition of human recombinant PDGFRbeta incubated for 40 mins by Kinase-Glo luminescent kinase assay
[18] = system: MCF7; experiment: Cytotoxicity against human MCF7 cells assessed as reduction in cell growth incubated for 24 hrs by MTT assay; details: MCF7, 24 h
[19] = molecular target: Vascular endothelial growth factor receptor 2 (Homo sapiens, UniProt P35968); experiment: Inhibition of VEGFR2 (unknown origin)
[20] = system: MCF7; experiment: Cytotoxicity against human MCF7 cells assessed as reduction in cell viability by MTT assay
[21] = system: Ishikawa; experiment: Antiproliferative activity against human Ishikawa cells assessed as reduction in cell growth incuabted for 48 hrs by MTT assay; format: functional, cell-based
[22] = molecular target: Histone deacetylase 2 (Homo sapiens, UniProt Q92769); experiment: Inhibition of HDAC2 (unknown origin)
[23] = system: U-937; experiment: Cytotoxicity against human U-937 cells; format: functional, cell-based
[24] = system: A549; experiment: Cytotoxicity against human A549 cells; format: functional, cell-based

Chain of Triosephosphate isomerase (P60174 whole entry): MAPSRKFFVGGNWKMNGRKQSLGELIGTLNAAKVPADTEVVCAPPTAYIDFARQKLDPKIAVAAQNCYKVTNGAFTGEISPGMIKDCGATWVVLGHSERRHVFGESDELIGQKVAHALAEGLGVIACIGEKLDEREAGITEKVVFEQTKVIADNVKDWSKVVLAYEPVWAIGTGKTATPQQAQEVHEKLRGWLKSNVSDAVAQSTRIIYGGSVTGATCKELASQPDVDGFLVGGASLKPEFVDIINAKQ
Chain of Platelet-derived growth factor receptor beta (P09619 whole entry): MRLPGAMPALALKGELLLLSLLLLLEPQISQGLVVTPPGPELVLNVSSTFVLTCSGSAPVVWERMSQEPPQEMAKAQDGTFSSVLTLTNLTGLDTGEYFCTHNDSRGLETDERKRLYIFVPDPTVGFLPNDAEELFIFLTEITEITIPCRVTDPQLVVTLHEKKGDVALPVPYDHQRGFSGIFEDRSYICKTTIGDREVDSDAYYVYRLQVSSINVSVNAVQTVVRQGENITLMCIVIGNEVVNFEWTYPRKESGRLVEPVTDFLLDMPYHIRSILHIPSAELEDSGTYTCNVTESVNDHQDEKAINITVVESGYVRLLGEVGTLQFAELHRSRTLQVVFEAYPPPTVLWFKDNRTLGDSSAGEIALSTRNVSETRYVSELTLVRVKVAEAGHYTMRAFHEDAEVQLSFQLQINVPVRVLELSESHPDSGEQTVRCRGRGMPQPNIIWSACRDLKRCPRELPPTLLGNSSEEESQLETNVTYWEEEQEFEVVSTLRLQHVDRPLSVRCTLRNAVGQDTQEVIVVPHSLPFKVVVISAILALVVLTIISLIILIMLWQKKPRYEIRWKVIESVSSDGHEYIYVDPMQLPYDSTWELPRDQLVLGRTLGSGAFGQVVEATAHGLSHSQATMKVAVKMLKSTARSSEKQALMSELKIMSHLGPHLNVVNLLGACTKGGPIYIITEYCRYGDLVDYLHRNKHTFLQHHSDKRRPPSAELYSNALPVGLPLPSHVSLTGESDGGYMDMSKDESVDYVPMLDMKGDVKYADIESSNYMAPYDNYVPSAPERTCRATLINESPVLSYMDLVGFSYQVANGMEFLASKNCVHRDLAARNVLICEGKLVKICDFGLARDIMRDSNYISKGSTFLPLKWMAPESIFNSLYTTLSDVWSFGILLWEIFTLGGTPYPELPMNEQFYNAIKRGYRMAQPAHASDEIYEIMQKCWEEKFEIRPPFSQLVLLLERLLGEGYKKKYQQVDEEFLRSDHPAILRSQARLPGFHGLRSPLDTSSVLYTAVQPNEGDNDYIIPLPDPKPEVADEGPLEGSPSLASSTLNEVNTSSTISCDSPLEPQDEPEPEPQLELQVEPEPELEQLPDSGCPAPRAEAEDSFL
Chain of Histone deacetylase 2 (Q92769 whole entry): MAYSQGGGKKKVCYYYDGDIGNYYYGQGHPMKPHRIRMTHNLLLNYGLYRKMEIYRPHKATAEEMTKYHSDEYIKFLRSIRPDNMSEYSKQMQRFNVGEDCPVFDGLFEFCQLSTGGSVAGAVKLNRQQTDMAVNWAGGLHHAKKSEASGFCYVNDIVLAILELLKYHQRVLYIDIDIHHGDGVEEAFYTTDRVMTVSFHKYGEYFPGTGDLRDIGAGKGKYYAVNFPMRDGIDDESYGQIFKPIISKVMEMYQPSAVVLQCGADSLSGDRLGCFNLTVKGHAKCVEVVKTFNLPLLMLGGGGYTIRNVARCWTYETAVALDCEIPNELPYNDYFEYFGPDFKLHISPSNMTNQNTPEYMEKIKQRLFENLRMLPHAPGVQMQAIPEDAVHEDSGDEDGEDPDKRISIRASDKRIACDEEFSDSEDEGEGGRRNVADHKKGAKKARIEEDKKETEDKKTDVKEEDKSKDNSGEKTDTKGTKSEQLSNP
Chain of Vascular endothelial growth factor receptor 2 (P35968 whole entry): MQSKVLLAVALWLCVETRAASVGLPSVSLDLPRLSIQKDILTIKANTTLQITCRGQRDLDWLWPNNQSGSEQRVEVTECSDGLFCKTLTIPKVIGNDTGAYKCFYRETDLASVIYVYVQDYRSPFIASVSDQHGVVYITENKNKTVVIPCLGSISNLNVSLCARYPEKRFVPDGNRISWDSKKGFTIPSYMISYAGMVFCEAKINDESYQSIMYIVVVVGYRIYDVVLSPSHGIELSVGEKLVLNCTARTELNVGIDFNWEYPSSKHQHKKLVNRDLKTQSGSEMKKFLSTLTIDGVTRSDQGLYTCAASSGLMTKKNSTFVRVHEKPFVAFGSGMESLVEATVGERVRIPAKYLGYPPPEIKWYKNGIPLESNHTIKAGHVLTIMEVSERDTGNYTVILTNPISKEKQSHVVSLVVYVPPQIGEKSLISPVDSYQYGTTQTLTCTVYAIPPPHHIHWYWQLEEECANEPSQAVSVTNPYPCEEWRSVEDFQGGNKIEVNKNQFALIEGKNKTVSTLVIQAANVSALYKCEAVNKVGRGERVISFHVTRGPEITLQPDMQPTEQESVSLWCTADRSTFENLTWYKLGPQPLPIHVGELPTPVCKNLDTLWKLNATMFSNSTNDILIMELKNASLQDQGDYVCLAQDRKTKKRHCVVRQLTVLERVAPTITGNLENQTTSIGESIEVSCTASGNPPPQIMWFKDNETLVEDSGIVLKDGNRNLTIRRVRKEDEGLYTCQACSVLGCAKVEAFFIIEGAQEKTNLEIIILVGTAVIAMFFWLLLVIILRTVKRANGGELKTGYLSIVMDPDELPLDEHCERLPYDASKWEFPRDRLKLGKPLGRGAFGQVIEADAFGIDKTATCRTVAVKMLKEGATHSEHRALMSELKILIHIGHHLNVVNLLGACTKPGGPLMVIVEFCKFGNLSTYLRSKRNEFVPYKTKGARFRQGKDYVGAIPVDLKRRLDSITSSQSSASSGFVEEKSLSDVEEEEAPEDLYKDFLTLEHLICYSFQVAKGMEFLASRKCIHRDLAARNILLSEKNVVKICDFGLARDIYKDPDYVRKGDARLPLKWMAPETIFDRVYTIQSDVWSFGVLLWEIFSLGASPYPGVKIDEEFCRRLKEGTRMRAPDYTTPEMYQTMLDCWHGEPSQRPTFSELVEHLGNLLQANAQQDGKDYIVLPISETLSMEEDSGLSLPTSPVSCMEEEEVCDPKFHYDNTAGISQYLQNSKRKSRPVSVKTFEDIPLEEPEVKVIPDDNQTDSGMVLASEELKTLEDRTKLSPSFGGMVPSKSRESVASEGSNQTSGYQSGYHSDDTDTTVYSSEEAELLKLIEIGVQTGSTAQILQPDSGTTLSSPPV

With `Nc1ccccc1NC(=O)c1ccc(CN2CCC/C(=C\c3cccc(Cl)c3)C2=O)cc1` the IC50 [1] was 2100 nM.
For `CCOCCSc1nc(-c2ccccc2Cl)nn1CCOCC`, the IC50 [2] was 3360 nM, the IC50 [3] was 5160 nM and the IC50 [4] was 1300 nM.
`CCOC(=O)Nc1nc2ccc(-c3cc(Cc4n[nH]c(=O)c5ccccc45)ccc3F)cc2[nH]1` gave a Cmax [5] of 12200 ng/mL, an IC50 [6] of 990 nM and an AUC(0-t) at 24 h [7] of 87600 ng·h/mL. The half-life [8] was 4.29 h.
In the case of `COc1cc(OC)c(/C=C2/C(=O)Nc3cc(Cl)ccc32)c(OC)c1`, the IC50 [9] is reported as 1660 nM and the IC50 [10] is reported as 200 nM.
`COc1cc2oc(C(=O)c3cc(OC)c(OC)c(OC)c3)cc2cc1/C=C/C(=O)O` gave an IC50 [11] of 1060 nM and an IC50 [12] of 1100 nM.
For `CN(C)c1ccc(/C=N/c2c(N)n(C)c(=O)[nH]c2=O)cc1`, the IC50 [13] was 1530 nM, the IC50 [6] was 1900 nM and the IC50 [14] was 3170 nM. It also gave a selectivity ratio [15] of 3.74 and an IC50 [16] of 1070 nM.
Work on `O=C1Nc2ccccc2/C1=C/c1ccc(OCC(=O)c2ccc(Br)cc2)cc1` yielded an IC50 [6] of 7990 nM, an IC50 [17] of 3180 nM and an IC50 [18] of 14800 nM. It also gave an IC50 [19] of 5750 nM and an IC50 [20] of 14800 nM.
Work on `O=c1cc(-c2ccc(F)cc2)oc2cc(-c3ccoc3)ccc12` yielded an IC50 [6] of 1400 nM and an IC50 [21] of 1000 nM.
`COc1cc2c(cc1OCc1ccc(C(=O)Nc3ccccc3N)cc1)CC[C@@H]1[C@@H]2CC[C@]2(C)[C@@H](O)CC[C@@H]12` gave an IC50 [22] of 60 nM, an IC50 [23] of 371 nM and an IC50 [24] of 1780 nM.
